Measurements: PMC9841531, “Indole Derivatives as New Structural Class of Potent and Antiproliferative Inhibitors of Monocarboxylate Transporter 1 (MCT1; SLC16A1)” (Journal of Medicinal Chemistry, 2022)

Columns and labels:
MCF-7 cancer cells = assay: MTT-based cell viability assay, MCF-7; conditions: Homo sapiens, MCF7, 72 h, read-out: MCF-7 cancer cell toxicity GI50 ± SEM
Text: (§1) MCT1-expressing cells have an extraordinary energy demand and rely on pyruvate metabolism, through either lactate conversion or pyruvate consumption. Inhibition of MCT1 blocks lactate and pyruvate influx into cancer cells, which prevents their processing in the TCA cycle. Over time, the viability of cells exposed to an MCT1 inhibitor is impaired due to pyruvate deprivation, which is compensated by upregulating glucose metabolism—leading to an overconsumption of glucose. To confirm the antiproliferative nature of the indole derivatives, we investigated the compounds toward the MCT1-expressing cell lines A-549[14],[15] and MCF-7.[16] Cancer cell viability was assessed via a 3-(4,5-dimethylthiazol-2-yl)-2,5-diphenyltetrazolium bromide (MTT) assay, as reported earlier.[43]
(§2) To determine the growth inhibitory potential of compounds 17–32, […] of each compound either at concentrations between 1 and 100 μM (A-549 or MCF-7) or at 10 and 50 μM (NIH/3T3) was pipetted into colorless flat-bottom 96-well microplates. Thereafter, 180 μL of a cell suspension (5000 cells/well) of either A-549, MCF-7, or NIH/3T3 cells was added and subsequently kept for 72 h at 37 °C under a 5% CO2-humidified atmosphere. The cell viability as well as the GI50 values were determined as described above.[43]

A-549 cancer cells = assay: MTT-based cell viability assay, A-549; conditions: Homo sapiens, A549, 72 h, read-out: A-549 cancer cell toxicity GI50 ± SEM
Text: as §1, §2

MCT1 [1] = biological target: T1, MCT1 (Homo sapiens, UniProt P53985); assay: functional 3-BP cell viability assay (MCT1 transport inhibition); type: cell-based; conditions: MCT1-expressing A-549 cells, 50 μM 3-BP, 72 h; read-out: MCT1 transport inhibition IC50 ± SEM
T1 construct: MCT1-expressing A-549 cells[14],[15] were exposed to the MCT1 substrate 3-BP, which becomes influxed by MCT1; endogenous in cells; host or cells: A-549 lung cancer cells (from NCCS, Pune)
T1 sequence (P53985 1-500): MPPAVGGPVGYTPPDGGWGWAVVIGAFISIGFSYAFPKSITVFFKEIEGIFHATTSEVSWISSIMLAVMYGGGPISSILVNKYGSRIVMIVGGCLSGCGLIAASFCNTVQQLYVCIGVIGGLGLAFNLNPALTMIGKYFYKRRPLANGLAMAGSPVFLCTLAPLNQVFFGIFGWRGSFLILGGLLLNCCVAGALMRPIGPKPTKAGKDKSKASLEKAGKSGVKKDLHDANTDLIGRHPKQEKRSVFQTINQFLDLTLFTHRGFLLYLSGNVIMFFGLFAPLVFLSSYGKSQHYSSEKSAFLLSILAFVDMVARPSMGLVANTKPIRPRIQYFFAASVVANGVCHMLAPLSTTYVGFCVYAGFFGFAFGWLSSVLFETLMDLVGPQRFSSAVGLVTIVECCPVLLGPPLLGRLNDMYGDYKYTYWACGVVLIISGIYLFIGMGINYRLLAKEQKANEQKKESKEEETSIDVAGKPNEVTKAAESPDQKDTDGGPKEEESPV
T1 sequence (P35613 140-385 partner limits assumed): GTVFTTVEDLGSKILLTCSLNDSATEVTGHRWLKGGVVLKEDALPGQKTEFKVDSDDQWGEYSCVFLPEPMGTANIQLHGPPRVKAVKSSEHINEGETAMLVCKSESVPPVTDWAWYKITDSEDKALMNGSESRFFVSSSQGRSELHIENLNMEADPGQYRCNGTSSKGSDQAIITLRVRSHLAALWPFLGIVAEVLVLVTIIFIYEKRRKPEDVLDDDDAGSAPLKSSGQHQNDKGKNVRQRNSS
Method: The inhibitory activity of indole derivatives against MCT1 was determined by applying a functional 3-bromopyruvate (3-BP) cell viability assay, as described in the literature[20],[39] with minor modifications. In short, MCT1-expressing A-549 cells[14],[15] were exposed to the MCT1 substrate 3-BP, which becomes influxed by MCT1. 3-BP is toxic, leading to decreased cell viability. Functional inhibition of MCT1 results in reduced intracellular 3-BP levels and, thus, enhanced cell viability compared to no inhibition. […] Table 1 provides the half-maximal inhibition concentration (IC50) values of compounds 17–32.
A functional 3-BP cytotoxicity assay was conducted as described in the literature[20],[39] with minor modifications. Dilution series of compounds 17–32 between 1 nM and 1 μM were prepared in DPBS (Cell Clone, Genetix Biotech Asia, New Delhi India), and 10 μL of each concentration was pipetted into a colorless flat-bottom 96-well microplate (SPL Life Sciences, Gyeonggi-do, Republic of Korea). One hundred and eighty microliters of a cell suspension (5000 cells/well) of A-549 cells was added, and subsequently, 10 μL of 3-BP was added at a concentration of 1 mM (final concentration per well: 50 μM). The plate was kept for 72 h at 37 °C under a 5% CO2-humidified atmosphere. Cell viability was determined as described before[43] by adding 20 μL of a 5 mg/mL solution of MTT to each well and further incubation for 1 h. Eventually, the supernatant was removed and 100 μL of DMSO was added to each well. The absorbance was spectrophotometrically determined at 570 nm using a SpectraMax iD3 multi-mode microplate reader (Molecular Devices, San Jose, CA) with a background correction (690 nm). The determined absorbance values were correlated to the logarithmic concentrations of compounds 17–32, and IC50 values were calculated applying nonlinear regression using GraphPad Prism (version 8.4.0., San Diego, CA).

MCT1 [2] = biological target: T1, MCT1; conditions: cited from earlier work
ABCB1 [3] = biological target: T2, ABCB1 (Homo sapiens, UniProt P08183); assay: calcein AM assay, ABCB1-expressing A2780/ADR cells; conditions: for IC50: read-out: ABCB1 calcein AM IC50 ± SEM, A2780/ADR cells, 22, 23 constrained to reference inhibitor 34; for ABCB1 inhibition: screening at 10 μM, inhibitor if 20% (+SEM) reached
Text: (§3) To provide a detailed picture of the pharmacological profile of the indole derivatives, we investigated their modulatory nature on the most prominent ABC transporters ABCB1 (P-glycoprotein, P-gp), ABCC1, (multidrug resistance-associated protein 1, MRP1), and ABCG2 (breast cancer resistance protein, BCRP). Here, we conducted calcein AM (ABCB1),[2],[52]−[59] daunorubicin (ABCC1),[52],[58]−[60] and pheophorbide A (ABCG2)[2],[52]−[60] assays using ABCB1-expressing A2780/ADR, ABCC1-expressing H69AR, and ABCG2-expressing MDCK II BCRP cells, respectively.
(§4) The calcein AM (ABCB1),[2],[52]−[59] daunorubicin (ABCB1[52],[60] and ABCC1[52],[58]−[60]), and pheophorbide A (ABCG2)[2],[52]−[60] assays were conducted as reported earlier. […] The data was processed using GraphPad Prism version 8.4.0, and IC50 values were determined, applying three- or four-parameter logistic equations, whatever was statistically preferred.

ABCG2 (BCRP) = biological target: T3, ABCG2 (BCRP) (Homo sapiens, UniProt Q9UNQ0); assay: pheophorbide A assay, ABCG2-expressing MDCK II BCRP cells; conditions: human, ABCG2-expressing MDCK II BCRP cells, probe pheophorbide A (0.5 μM final)
T3 sequence (Q9UNQ0 1-655): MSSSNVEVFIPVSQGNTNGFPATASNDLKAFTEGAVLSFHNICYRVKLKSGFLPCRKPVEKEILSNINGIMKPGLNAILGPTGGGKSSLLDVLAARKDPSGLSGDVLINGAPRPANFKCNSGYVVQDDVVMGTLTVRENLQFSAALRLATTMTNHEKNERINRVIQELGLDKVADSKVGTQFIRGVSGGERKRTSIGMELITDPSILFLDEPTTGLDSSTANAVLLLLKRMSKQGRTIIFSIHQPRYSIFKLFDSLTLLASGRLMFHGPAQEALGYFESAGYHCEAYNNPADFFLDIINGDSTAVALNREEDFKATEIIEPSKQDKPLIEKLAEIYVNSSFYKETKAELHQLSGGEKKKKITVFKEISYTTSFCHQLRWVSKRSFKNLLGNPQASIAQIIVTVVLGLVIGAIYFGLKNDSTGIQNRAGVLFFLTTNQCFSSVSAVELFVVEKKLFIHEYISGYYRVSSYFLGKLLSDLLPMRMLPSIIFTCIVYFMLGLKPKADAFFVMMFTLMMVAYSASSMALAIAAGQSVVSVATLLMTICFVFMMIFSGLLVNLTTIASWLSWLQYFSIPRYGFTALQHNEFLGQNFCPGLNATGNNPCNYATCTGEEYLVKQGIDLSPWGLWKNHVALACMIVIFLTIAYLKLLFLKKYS
Text: as §3, §4

ABCG2 = biological target: T4, ABCG2 (Homo sapiens, UniProt Q9UNQ0); assay: as above; conditions: for ABCG2 inhibition: screening at 10 μM, inhibitor if 20% (+SEM) reached
T4 sequence (Q9UNQ0 1-655): T3 sequence (Q9UNQ0 1-655)
Text: as §3, §4

ABCC1 = ABCC1 (Homo sapiens, UniProt P33527); assay: daunorubicin assay, ABCC1-expressing H69AR cells; conditions: for inhibition at 10 µM: H69AR, read-out: inhibition of ABCC1 in screening; for IC50: read-out: ABCC1 daunorubicin IC50 ± SEM, H69AR cells, 22, 23 constrained to reference inhibitor 35; for ABCC1 inhibition: screening at 10 μM, inhibitor if 20% (+SEM) reached
Text: as §3, §4

ABCB1 [4] = biological target: T2, ABCB1; assay: daunorubicin assay, ABCB1-expressing A2780/ADR cells; type: cell-based; conditions: A2780/ADR cells; read-out: ABCB1 daunorubicin IC50 ± SEM
[5] = biological target: ABCB1 (P-glycoprotein, P-gp) (Homo sapiens, UniProt P08183); assay: as above; type: cell-based; conditions: human, ABCB1-expressing A2780/ADR cells, probe daunorubicin (3 μM final); relative to reference inhibitor 34 = 100%; read-out: maximal inhibition (Imax), ABCB1 daunorubicin
ABCB1 (P-glycoprotein, P-gp), sequence (P08183 whole entry): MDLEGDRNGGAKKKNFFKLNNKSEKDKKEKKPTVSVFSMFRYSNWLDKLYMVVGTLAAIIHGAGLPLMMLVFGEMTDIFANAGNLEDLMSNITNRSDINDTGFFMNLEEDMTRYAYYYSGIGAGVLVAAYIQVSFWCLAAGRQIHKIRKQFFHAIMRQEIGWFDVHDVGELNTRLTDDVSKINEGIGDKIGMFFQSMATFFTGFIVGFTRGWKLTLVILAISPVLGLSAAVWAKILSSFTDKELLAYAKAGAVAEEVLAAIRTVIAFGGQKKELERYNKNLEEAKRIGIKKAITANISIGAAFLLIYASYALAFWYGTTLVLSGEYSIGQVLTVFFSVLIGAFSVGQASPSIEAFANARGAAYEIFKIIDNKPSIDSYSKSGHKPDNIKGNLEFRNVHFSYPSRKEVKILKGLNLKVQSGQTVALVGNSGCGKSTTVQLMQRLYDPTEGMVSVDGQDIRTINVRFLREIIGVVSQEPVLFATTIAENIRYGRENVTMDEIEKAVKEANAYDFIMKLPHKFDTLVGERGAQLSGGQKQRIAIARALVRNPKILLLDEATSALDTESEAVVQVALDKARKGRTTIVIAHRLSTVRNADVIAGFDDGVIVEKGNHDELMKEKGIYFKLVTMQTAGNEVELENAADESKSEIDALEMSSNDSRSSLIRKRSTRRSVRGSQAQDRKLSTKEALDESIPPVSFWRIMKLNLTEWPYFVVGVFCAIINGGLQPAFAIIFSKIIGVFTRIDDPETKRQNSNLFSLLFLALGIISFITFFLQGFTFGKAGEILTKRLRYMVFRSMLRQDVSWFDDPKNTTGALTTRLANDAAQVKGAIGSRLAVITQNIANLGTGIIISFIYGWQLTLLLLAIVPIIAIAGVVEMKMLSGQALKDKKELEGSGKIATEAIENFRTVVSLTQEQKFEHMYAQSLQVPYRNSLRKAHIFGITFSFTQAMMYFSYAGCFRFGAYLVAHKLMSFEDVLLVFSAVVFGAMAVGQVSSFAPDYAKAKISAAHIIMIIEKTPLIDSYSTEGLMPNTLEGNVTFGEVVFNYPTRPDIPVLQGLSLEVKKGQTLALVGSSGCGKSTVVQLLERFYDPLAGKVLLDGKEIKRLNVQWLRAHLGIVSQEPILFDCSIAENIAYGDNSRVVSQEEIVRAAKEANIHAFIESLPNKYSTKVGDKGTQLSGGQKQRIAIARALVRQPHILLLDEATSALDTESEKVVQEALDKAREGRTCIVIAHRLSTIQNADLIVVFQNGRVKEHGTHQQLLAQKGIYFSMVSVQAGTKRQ

ABCC1, sequence (P33527 whole entry): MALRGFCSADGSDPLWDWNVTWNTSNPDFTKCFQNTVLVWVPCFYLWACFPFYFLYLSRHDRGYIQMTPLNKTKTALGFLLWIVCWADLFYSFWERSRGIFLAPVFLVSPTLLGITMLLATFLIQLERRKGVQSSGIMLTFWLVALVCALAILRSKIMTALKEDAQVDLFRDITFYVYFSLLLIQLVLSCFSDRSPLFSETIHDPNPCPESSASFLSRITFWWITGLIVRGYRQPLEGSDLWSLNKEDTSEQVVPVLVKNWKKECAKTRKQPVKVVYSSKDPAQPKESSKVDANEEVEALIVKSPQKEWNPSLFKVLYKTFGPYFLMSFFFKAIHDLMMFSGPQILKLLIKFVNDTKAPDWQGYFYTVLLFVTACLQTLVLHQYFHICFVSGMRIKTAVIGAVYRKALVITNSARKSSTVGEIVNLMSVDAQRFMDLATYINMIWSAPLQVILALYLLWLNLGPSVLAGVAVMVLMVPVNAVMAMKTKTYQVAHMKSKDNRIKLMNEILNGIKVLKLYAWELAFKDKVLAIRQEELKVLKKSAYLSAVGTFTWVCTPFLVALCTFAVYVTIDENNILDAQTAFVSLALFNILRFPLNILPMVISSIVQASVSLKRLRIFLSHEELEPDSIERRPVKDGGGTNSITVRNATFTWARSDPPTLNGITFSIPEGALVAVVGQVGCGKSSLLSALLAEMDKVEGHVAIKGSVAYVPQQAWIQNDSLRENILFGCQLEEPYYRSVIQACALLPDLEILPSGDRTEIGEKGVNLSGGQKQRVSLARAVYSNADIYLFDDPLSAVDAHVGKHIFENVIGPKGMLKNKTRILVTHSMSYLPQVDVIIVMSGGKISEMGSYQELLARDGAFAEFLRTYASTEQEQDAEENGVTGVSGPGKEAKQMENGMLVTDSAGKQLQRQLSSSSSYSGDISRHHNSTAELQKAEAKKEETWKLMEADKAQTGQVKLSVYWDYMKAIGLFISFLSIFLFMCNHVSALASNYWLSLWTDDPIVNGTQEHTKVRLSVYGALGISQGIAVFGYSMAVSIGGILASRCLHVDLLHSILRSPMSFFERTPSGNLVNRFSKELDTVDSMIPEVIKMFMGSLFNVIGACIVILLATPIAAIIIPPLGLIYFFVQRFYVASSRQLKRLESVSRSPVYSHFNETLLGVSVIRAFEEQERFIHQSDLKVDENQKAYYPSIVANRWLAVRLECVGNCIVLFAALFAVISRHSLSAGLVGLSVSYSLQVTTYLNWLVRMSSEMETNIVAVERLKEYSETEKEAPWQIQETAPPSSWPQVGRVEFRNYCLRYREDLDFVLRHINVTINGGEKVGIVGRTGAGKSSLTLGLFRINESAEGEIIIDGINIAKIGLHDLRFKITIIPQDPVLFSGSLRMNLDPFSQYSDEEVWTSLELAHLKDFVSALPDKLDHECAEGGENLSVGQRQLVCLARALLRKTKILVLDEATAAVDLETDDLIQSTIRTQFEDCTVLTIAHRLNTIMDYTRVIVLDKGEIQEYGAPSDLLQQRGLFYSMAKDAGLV
T2 sequence (P08183 whole entry): as the sequence (P08183 whole entry) above

Row | SMILES | GI50 (MCF-7 cancer cells) [µM] | GI50 (A-549 cancer cells) [µM] | IC50 (MCT1 [1]) [µM] | inhibitory power (MCT1) in the literature (MCT1 [2]) | IC50 (ABCB1 [3]) [µM] | ABCB1 inhibition (ABCB1 [3]) | inhibition at 120 min, 10 μM (ABCG2 (BCRP)) [%] | IC50 (ABCG2) [µM] | ABCG2 inhibition (ABCG2) | inhibition at 10 µM (ABCC1) [%] | IC50 (ABCC1) [µM] | ABCC1 inhibition (ABCC1) | IC50 (ABCB1 [4]) [µM] | inhibition at 180 min [5] [%]
1 | N#C/C(=C\c1ccc(O)cc1)C(=O)O [Compound 8, reference compound] | 108 ± 3 | 52.7 ± 0.2 | 0.0872 ± 0.0035 | submillimolar to low micromolar concentration ranges | – | – | – | – | – | – | – | – | – | –
2 | COC(=O)/C(C#N)=C/c1cn(CC(=O)Nc2ccccc2OC)c2ccccc12 [Compound 22, Methyl-2-cyano-3-(1-(2-((2-methoxyphenyl)amino)-2-oxoethyl)-1H-indol-3-yl) Acrylate] | 19.1 ± 0.5 | 26 ± 0.3 | 0.135 ± 0.002 | – | 24.3 ± 6.4 | X (Compounds were considered as inhibitors if they reached 20% (+SEM) inhibition compared to the reference inhibitors 33–35; X = fulfilled) | ≥ 20 | 99.5 ± 24.5 | X (Compounds were considered as inhibitors if they reached 20% (+SEM) inhibition compared to the reference inhibitors 33–35; X = fulfilled) | ≥ 20 | 17.3 ± 2.2 | X (Compounds were considered as inhibitors if they reached 20% (+SEM) inhibition compared to the reference inhibitors 33–35; X = fulfilled) | – | –
3 | COC(=O)/C(C#N)=C/c1cn(CC(=O)Nc2cccc(OC)c2)c2ccccc12 [Compound 23, Methyl-2-cyano-3-(1-(2-((3-methoxyphenyl)amino)-2-oxoethyl)-1H-indol-3-yl) Acrylate] | 14.7 ± 0.2 | 25.5 ± 0.5 | 0.105 ± 0.009 | – | 5.32 ± 1.67 | X (Compounds were considered as inhibitors if they reached 20% (+SEM) inhibition compared to the reference inhibitors 33–35; X = fulfilled) | ≥ 20 | 43.5 ± 7.5 | X (Compounds were considered as inhibitors if they reached 20% (+SEM) inhibition compared to the reference inhibitors 33–35; X = fulfilled) | ≥ 20 | 19.1 ± 3.4 | X (Compounds were considered as inhibitors if they reached 20% (+SEM) inhibition compared to the reference inhibitors 33–35; X = fulfilled) | – | –
4 | COC(=O)/C(C#N)=C/c1cn(CC(=O)Nc2ccc(Br)cn2)c2ccccc12 [Compound 31, Methyl-3-(1-(2-((5-bromopyridin-2-yl)amino)-2-oxoethyl)-1H-indol-3-yl)-2-cyanoacrylate] | 3.13 ± 0.23 | 18.8 ± 0.2 | 0.214 ± 0.032 | – | 1.4 ± 0.11 | X (Compounds were considered as inhibitors if they reached 20% (+SEM) inhibition compared to the reference inhibitors 33–35; X = fulfilled) | – | – | – | – | – | X (Compounds were considered as inhibitors if they reached 20% (+SEM) inhibition compared to the reference inhibitors 33–35; X = fulfilled) | 1.19 ± 0.12 | 39
